Biological target: α-glucosidase from Saccharomyces cerevisiae (Saccharomyces cerevisiae, UniProt P53341)
Experiment: α-Glucosidase inhibitory assay
Assay type: biochemical
Conditions: mean ± standard error, n = 3; for Inhibition (I, %) 10 μM: compound at 10 μM; for Inhibition (I, %) 10 μM / Inhibition (I, %) 25 μM: series 250–10 μM; for Inhibition (I, %) 25 μM: compound at 25 μM; for Inhibition (I, %) 50 μM: compound at 50 μM; for Inhibition (I, %) 100 μM: compound at 100 μM; for Inhibition (I, %) 250 μM: compound at 250 μM

α-glucosidase from Saccharomyces cerevisiae, sequence (P53341 whole entry): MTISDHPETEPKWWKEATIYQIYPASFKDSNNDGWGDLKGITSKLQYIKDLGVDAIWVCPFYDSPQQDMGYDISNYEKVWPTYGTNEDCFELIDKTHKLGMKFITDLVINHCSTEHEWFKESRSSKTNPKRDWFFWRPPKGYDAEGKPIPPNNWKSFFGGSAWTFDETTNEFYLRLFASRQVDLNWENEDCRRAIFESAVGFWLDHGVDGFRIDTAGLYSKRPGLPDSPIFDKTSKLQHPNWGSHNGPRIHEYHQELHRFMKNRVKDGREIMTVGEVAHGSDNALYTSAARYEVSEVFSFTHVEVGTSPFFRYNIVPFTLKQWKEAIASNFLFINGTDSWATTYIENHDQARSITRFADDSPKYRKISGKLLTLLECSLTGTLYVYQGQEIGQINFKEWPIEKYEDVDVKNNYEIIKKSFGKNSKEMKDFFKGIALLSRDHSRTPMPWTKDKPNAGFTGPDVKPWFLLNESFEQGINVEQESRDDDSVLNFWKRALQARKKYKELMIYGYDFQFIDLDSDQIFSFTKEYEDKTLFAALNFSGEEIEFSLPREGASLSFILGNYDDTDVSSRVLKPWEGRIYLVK

SMILES | Inhibition (I, %) 10 μM [%] | Inhibition (I, %) 25 μM [%] | Inhibition (I, %) 50 μM [%] | Inhibition (I, %) 100 μM [%] | Inhibition (I, %) 250 μM
O=c1c(O)c(-c2ccc(O)cc2)oc2cc(O)cc(O)c12 [Compound 8, kaempferol] | 8.6 ± 1.4 | 44.1 ± 2.9 | 84.9 ± 1.1 | 98.5 ± 2.2 | ^b (Inhibition > 99%)
C[C@H]1O[C@H](O[C@H]2[C@H](O)[C@@H](O)[C@@H](O[C@H]3[C@H](O)[C@@H](O)C(O)O[C@@H]3CO)O[C@@H]2CO)[C@H](O)[C@@H](O)[C@@H]1N[C@H]1C=C(CO)[C@@H](O)[C@H](O)[C@H]1O (stereo partly shown) [Acarbose] | 5.45 ± 0.68 | 9.3 ± 1.2 | 21.0 ± 1.6 | 26.8 ± 1.0 | 63.8 ± 1.0%

— article PMC12284876 (RSC Advances, 2025)
